Experiments:
[1] = system: human and murine cell lines; assay: Anti-glioma activity in vitro (Figure 1 b); assay type: cell-based
Description: The inventors seeded 5,000 or 10,000 cells, respectively, on day one, treated the next day in serum-free medium and incubated for up to 72 h. Subsequently, they measured cell viability using CellTiterBlue reagent (Promega, Madison, WI, US) according to manufacturer's instructions with a GloMax (Promega, Madison, Wl, US). The inventors normalized measurements to untreated cells. Cells were seeded the day before treatment. The inventors treated the cells in the indicated concentrations in serum-free medium for 24 h after which they changed the medium back to medium containing FCS, followed by a 7 to 21 day incubation time. The inventors used crystal violet (0.5% w/v) to stain colonies and analyzed the area coverage using the ImageJ software Plugln ColonyArea. Measurements were normalized to respective vehicle control wells.

[2] = system: primary cultures TUE-PC1-6; assay: Combination treatment in primary glioma cultures (Bliss independence Criterion); assay type: cell-based; details: plus AZD6738
From the text: Primary tumor tissue was obtained from fresh residual material upon resection at the Department of Neurosurgery, University Hospital Tübingen. The inventors cut the tissue in small pieces, washed it using Hanks Balanced Salt Solution (HBSS) (Gibco, Carlsbad, CA, US) and digested it by collagenase and dispase (Roche, Basel, CH). To remove any remaining erythrocytes, they used red blood cell lysis buffer (Sigma Aldrich, St. Louis, MO, US). The inventors then cultured the cells as GS cells in Neurobasal®-A medium. They first evaluated AZD6738 sensitivity of each primary culture and selected two concentrations. […] To evaluate combination treatment analyses, the inventors leveraged the Bliss independence Criterion.
(§1) The inventors seeded 5,000 or 10,000 cells, respectively, on day one, treated the next day in serum-free medium and incubated for up to 72 h. Subsequently, they measured cell viability using CellTiterBlue reagent (Promega, Madison, WI, US) according to manufacturer's instructions with a GloMax (Promega, Madison, Wl, US). The inventors normalized measurements to untreated cells.

[3] = system: LN229-GFP cells; assay: Zebrafish embryo xenotransplant, tumor area; assay type: in vivo, wildtype zebrafish embryos; details: monotherapy, 48 h of treatment; not significant as compared to the DMSO control
Description: The inventors used zebrafish wildtype (wt) TE embryos younger than 5 days post-fertilization (dpf). […] Labelled cells were suspended in PBS at 2*10^5 cells/µL and approx. 1 nL cell suspension was injected into the midbrain region of 24 hpf embryos. The inventors incubated the embryos at 28°C for 1 h and afterwards divided them into treatment groups. Only successfully transplanted embryos were used for further experiments. Then, the inventors applied the treatments as indicated in the respective figures and incubated that for 48 h at 35°C. For evaluation of tumor size, they imaged embryos on a Nikon Stereomicroscope (SMZ18) with the NIS Element software. The inventors assessed the tumor surface areas using Imaris (version 9.2.0).

[4] = system: LN229, LNZ308, GS-2 and GS-9 cells; assay: 4x4 synergy map assay (ZIP synergy score), all four cell lines; assay type: cell-based; details: combined with AZD6738 (ATRi); across all four cell lines
Description: as §1
The inventors leveraged an acute cytotoxicity assay workflow to evaluate potential interaction partners for AZD6738 which were derived from transcriptomic, proteomic and genome-wide CRISPR/Cas9 genetic dependency analyses. In a 1×1/IC50×IC50 set-up, they treated LN229 and LNZ308 cells in serum free medium for 72 h. The inventors used the original Bliss Independence Criterion to evaluate synergism potential. For this, a predicted value for additivity, derived from the product of the two monotherapy settings, was compared to the actual measurement of the combined treatment of the two drugs. […] The inventors used the R package synergyfinder with zero interaction potential (ZIP) synergy scores calculated from 4x4 concentration matrices for each tested combination and the average across the plate; see He et al. (2018); Methods for High-throughput Drug Combination Screening and Synergy Scoring. […]

[5] = system: LN229 and LNZ308 cells; assay: 1x1 (IC50xIC50) pre-selection screen, acute cytotoxicity assay, Bliss Independence Criterion; assay type: cell-based, human; details: combined with AZD6738, 1x1 (IC50xIC50), 72 h, serum free medium
Description: as §1
The inventors leveraged an acute cytotoxicity assay workflow to evaluate potential interaction partners for AZD6738 which were derived from transcriptomic, proteomic and genome-wide CRISPR/Cas9 genetic dependency analyses. In a 1×1/IC50×IC50 set-up, they treated LN229 and LNZ308 cells in serum free medium for 72 h. The inventors used the original Bliss Independence Criterion to evaluate synergism potential. For this, a predicted value for additivity, derived from the product of the two monotherapy settings, was compared to the actual measurement of the combined treatment of the two drugs. […] BMC Systems Biology 4: 50. Subsequently, the inventors subjected LN229, LNZ308, GS-2 and GS-9 cells to 4x4 synergy map assays again in an acute cytotoxicity assay workflow. The inventors used the R package synergyfinder with zero interaction potential (ZIP) synergy scores calculated from 4x4 concentration matrices for each tested combination and the average across the plate; see He et al. (2018); Methods for High-throughput Drug Combination Screening and Synergy Scoring. In Cancer Systems Biology: Methods and Protocols, von Stechow (ed) pp 351-398. New York, NY: Springer New York.

[6] = system: GS-2 cells; assay: 4x4 synergy map assay (ZIP synergy score); assay type: cell-based; details: combined with AZD6738 (ATRi)
Description: as §1
(§2) The inventors leveraged an acute cytotoxicity assay workflow to evaluate potential interaction partners for AZD6738 which were derived from transcriptomic, proteomic and genome-wide CRISPR/Cas9 genetic dependency analyses. […] The inventors used the original Bliss Independence Criterion to evaluate synergism potential. For this, a predicted value for additivity, derived from the product of the two monotherapy settings, was compared to the actual measurement of the combined treatment of the two drugs. […] BMC Systems Biology 4: 50. Subsequently, the inventors subjected LN229, LNZ308, GS-2 and GS-9 cells to 4x4 synergy map assays again in an acute cytotoxicity assay workflow. […] New York, NY: Springer New York.

[7] = system: GS-9; assay: 4x4 synergy map assay (ZIP synergy score); assay type: cell-based; details: combined with AZD6738 (ATRi)
Description: as §1, §2

[8] = system: LN229 cells; assay: 4x4 synergy map assay (ZIP synergy score); assay type: cell-based, human; details: combined with AZD6738 (ATRi)
Description: as §1, §2

[9] = system: LNZ308; assay: 4x4 synergy map assay (ZIP synergy score); assay type: cell-based, human; details: combined with AZD6738 (ATRi)
Description: as §1, §2

CNCc1ccc(-c2cc(-c3nc(-c4ccc(S(=O)(=O)C(C)C)cc4)cnc3N)on2)cc1 [Berzosertib, berzosertib]
anti-glioma activity in vitro [1]: significant anti-glioma activity

N.N.[Cl][Pt][Cl] [cisplatin, cis-diammine dichloridoplatin]
combination efficacy (Bliss Independence Criterion) ([2]; all six primary cultures): synergistic read-outs
tumor area [3]: modest decrease
ZIP synergy score (synergism signature) [4]: synergism signature

COc1cccc2c1C(=O)c1c(O)c3c(c(O)c1C2=O)C[C@@](O)(C(=O)CO)C[C@@H]3O[C@H]1C[C@H](N)[C@H](O)[C@H](C)O1 [doxorubicin]
Bliss synergy scores [5]: top scoring hits

COc1cc([C@@H]2c3cc4c(cc3[C@@H](O[C@@H]3O[C@@H]5CO[C@@H](C)O[C@H]5[C@H](O)[C@H]3O)[C@H]3COC(=O)[C@H]23)OCO4)cc(OC)c1O [etoposide, Etoposide]
Bliss synergy scores [5]: top scoring hits

CO[C@H]1C[C@@H]2CC[C@@H](C)[C@@](O)(O2)C(=O)C(=O)N2CCCC[C@H]2C(=O)O[C@H]([C@H](C)C[C@@H]2CC[C@@H](OCCO)[C@H](OC)C2)CC(=O)[C@H](C)/C=C(\C)[C@@H](O)[C@@H](OC)C(=O)[C@H](C)C[C@H](C)/C=C/C=C/C=C/1C [everolimus]
Bliss synergy scores [5]: top candidates

COc1ccc2c(c1)[nH]c1c(C)nccc12 [harmine]
Bliss synergy scores [5]: top scoring hits

NC(=O)NO [hydroxyurea, hydroxycarbamide]
combination efficacy (Bliss Independence Criterion) ([2]; TUE-PC1, TUE-PC4, TUE-PC5): not
combination efficacy (Bliss Independence Criterion) ([2]; TUE-PC2, TUE-PC3 and TUE-PC6): synergistic readout
ZIP synergy score (synergism signature) [4]: synergism signature
Bliss synergy scores [5]: top scoring hits

O=C(c1cc(Cc2n[nH]c(=O)c3ccccc23)ccc1F)N1CCN(C(=O)C2CC2)CC1 [olaparib, Olaparib]
ZIP synergy score (interaction with ATRi) [6]: synergistic interaction
ZIP synergy score (interaction with ATRi) [7]: do not
ZIP synergy score (interaction with ATRi) [8]: synergistic interaction
ZIP synergy score (interaction with ATRi) [9]: do not
Bliss synergy scores [5]: top scoring hits

O=c1sn(-c2cccc3ccccc23)c(=O)n1Cc1ccccc1 [tideglusib, Tideglusib]
Bliss synergy scores [5]: top scoring hits

O=C(CCCCCCC(=O)Nc1ccccc1)NO [vorinostat, suberoylanilide hydroxamic acid]
Bliss synergy scores [5]: top scoring hits
